# US20250186396A1, “COMPOSITIONS AND METHODS FOR THE TREATMENT OF GLIOBLASTOMA WITH A DUAL TARGETING ANTI-TUMOR COMPOSITION” (Northwestern University, priority 2023, published 2025)
# Tested on: OLFML3
# Assay: RT-qPCR of OLFML3 in PTEN-KO SF763 cells
# Assay type: cell-based, human
# Conditions: shC PTEN-KO SF763 cells; SC75741 5 μM; 8 hours
# Description: Cell Culture. The GBM cell lines U87, U251, SF763, LN229, and CT2A, as well as 293T cells were cultured in Dulbecco's Modified Eagle's Medium (DMEM; Gibco, #11995-065). The mouse glioma cell line GL261 cells and SIM-A9 microglia were cultured in Dulbecco's Modified Eagle Medium-Ham's F12 medium (Gibco, #10565-018). HMC3 microglia were cultured in Eagle's Minimum Essential Medium (ATCC, #30-2003). THP-1 macrophages were cultured in RPMI 1640 medium (Gibco, #11875093). All cell lines were cultured in the indicated medium containing 10% fetal bovine serum (FBS; Fisher Scientific, #16140071) and 1:100 antibiotic-antimycotic (Gibco, #15140-122), and were purchased from the American Type Culture Collection (ATCC). Human GSCs (GSC23 and GSC7-10) and mouse GBM tumor-derived 005 GSCs and QPP7 GSCs were cultured in neural stem cell (NSC) proliferation media (Millipore, #SCM005) containing 20 ng/mL epidermal growth factor (EGF; PeproTech, #AF-100-15) and basic fibroblast growth factor (bFGF; PeproTech, #100-18B). Human GSCs were gifted by Dr. Frederick F. Lang from the Brain Tumor Center (The University of Texas MD Anderson Cancer Center). […]
# Quantitative real-time PCR (RT-qPCR). […] RNA was quantified by NanoDrop spectrophotometers and then the All-In-One 5× RT MasterMix (Applied Biological Materials, #G592) was used to reverse-transcribe RNA into cDNA in T100 Thermal Cycler (Bio-Rad). […]
smiles,measurement,value
O=C(c1ccccc1)c1ccc2nc(NC(=O)c3csc(C4CCN(c5ncnc6ccsc56)CC4)n3)[nH]c2c1 [SC75741],mRNA expression of OLFML3,upregulated
